{"source": "patent US20080063601A1", "about": "“Compositions and methods relating to polycystic kidney disease” (priority 2004, published 2008)", "assay_type_in_all_cases": "cell-based", "key": {"HeLa cells": {"tested_on": "HeLa cells", "test": "HeLa cell viability by trypan blue dye exclusion", "procedure": "Since extracellular calcium concentration can influence triptolide binding Applicant sought to determine if the presence of calcium influences the rate of triptolide-mediated apoptosis. To first establish the growth rate of HeLa in media±calcium, cell counts were performed over a 72 hour time course. Although calcium-free media caused cells to detach more easily, the overall growth rates were similar where cell doubling occurred every 24 hours on average (FIG. 5B). For triptolide experiments, cells were initially equilibrated in medium±calcium for 16 hours before the addition of 100 nM triptolide. Cell death was assessed by trypan blue dye exclusion at 24, 48, and 72 hours post drug treatment. In the presence of calcium-containing medium, triptolide induced at least 50% cell death by 24 hours with this trend continuing through later time points (FIG. 5C).\nApplicant's results have implicated reversible binding of triptolide to a potential binding protein or complex that can be regulated by calcium. To understand if triptolide function is further separable between cell death and NFκB inhibition, Applicant examined the effect of concentration on these two endpoints. HeLa cells were cultured in the presence of 0, 10, 25, 50, or 100 nM of triptolide and separately assessed for cell death or the ability to suppress NFκB transactivation promoted by TNF-α. Following 24-48 hours of culture, viable cells were recovered and counted. Following 24 hours, triptolide concentrations from 25-100 nM caused greater than 50% of the cells to undergo cell death as assessed by detachment, clumping and the failure to exclude trypan blue dye. […] This is consistent with previous studies showing that low doses of triptolide cause cell cycle arrest rather than apoptosis (Kiviharju, et al., 2002, Clin Cancer Res 8, 2666-2674).\nBased upon Applicant's studies examining the concentration dependent effect of triptolide on the two measured biological endpoints, cell death and transcriptional repression, Applicant wanted to determine how modulating triptolide's structure may also discriminate between the two pathways. For cell viability assays, HeLa cells were incubated with 0, 0.1, 1, or 10 μM of each analog or triptolide for 24 hours and then counted using trypan blue dye exclusion. […] NFκB transcriptional inhibition was measured using the κB-luciferase assay as previously described following 5 hours of incubation with each analog (0-10 μM) and TNF-α addition.\nHeLa cells were incubated in DMEM or SMEM (Gibco) media+10% FBS and maintained at 37° C. in 5% CO2 for all experiments. HeLa cell viability was assessed by trypan blue dye exclusion, as well as by morphological examination (non-viable cells were rounded and detached from culture plate)."}, "polycystin-2 [1]": {"biological_target": "T1, polycystin-2 (Mus musculus, UniProt O35245)", "T1 construct": "endogenous in cells; host or cells: Pkd1-/- (PN24) murine kidney proximal tubule epithelial cells", "T1 sequence (O35245 1-966)": "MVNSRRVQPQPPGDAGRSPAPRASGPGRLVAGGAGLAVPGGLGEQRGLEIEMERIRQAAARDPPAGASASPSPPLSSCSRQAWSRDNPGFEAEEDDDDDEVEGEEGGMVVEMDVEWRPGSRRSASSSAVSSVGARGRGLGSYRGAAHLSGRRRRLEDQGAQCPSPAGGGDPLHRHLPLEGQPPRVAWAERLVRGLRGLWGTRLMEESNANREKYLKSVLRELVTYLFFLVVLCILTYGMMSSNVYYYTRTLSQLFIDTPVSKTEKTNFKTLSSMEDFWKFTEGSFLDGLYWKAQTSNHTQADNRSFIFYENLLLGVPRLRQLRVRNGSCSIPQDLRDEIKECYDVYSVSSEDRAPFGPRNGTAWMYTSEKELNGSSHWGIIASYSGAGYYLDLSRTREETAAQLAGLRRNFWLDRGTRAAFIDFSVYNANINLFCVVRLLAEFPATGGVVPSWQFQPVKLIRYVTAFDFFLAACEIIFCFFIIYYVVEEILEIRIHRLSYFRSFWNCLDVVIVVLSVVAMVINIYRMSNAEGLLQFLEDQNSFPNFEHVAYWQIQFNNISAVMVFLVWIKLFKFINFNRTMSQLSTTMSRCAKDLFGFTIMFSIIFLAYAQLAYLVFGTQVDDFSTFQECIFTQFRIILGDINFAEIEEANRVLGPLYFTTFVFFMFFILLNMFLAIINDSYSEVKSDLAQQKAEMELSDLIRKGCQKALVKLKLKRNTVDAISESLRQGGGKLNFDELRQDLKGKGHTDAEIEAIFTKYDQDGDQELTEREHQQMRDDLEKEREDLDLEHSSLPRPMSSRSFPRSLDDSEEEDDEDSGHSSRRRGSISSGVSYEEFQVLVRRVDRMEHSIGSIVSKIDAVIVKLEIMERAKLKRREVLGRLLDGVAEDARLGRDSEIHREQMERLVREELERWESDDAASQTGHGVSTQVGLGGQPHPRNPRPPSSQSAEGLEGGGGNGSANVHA", "test": "Fluo-4 calcium imaging in murine kidney epithelial cells", "settings": "Pkd1^−/− cells, 100 nM perfused", "procedure": "(§1) Cells were plated on coverslips and loaded with Fluo-4 (Molecular Probes) diluted in DMSO/pluronic for 30 minutes prior to imaging. Cells were perfused with a calcium imaging buffer (HEPES, NaCl, KCl, MgSO4 and CaCl2) ±100 nM triptolide. All cell traces are indicative of individual cellular fluorescence and calcium release. Data is presented as change of fluorescence over baseline control (before triptolide addition).\n(§2) Murine kidney epithelial cell lines with differing polycystin-1 or polycystin-2 expression were used to establish a cellular based mechanism for polycystin-2 mediated calcium release in response to triptolide. Because the biochemical purification analysis identified polycystin-2 as a putative triptolide binding protein, Applicant assessed whether the calcium release was dependent upon expression of polycystin-1. Epithelial cells derived from the proximal nephric tubules of Pkd1^−/− mice were first examined to determine if calcium release was observed when 100 nM of triptolide was perfused through the imaging chamber. […] To strengthen the evidence that polycystin-2 was necessary for calcium release elicited by triptolide addition, it was reconstituted by stable expression of Pkd2 into the background of Pkd2^−/− cells, which were assessed for sensitivity to triptolide."}, "polycystin-2 [2]": {"tested_on": "polycystin-2", "test": "Fluo-4 calcium imaging in murine kidney epithelial cells", "procedure": "as §1, §2"}}, "data": [{"smiles": "CC(C)[C@]12O[C@H]1[C@@H]1O[C@]13[C@]1(O[C@H]1C[C@H]1C4=C(CC[C@@]13C)C(=O)OC4)[C@@H]2O", "note": "[triptolide]", "values": [{"measurement": "minimal incubation time required for commitment to apoptosis", "setting": "HeLa cells", "value": "three to four hours"}, {"measurement": "effect on cell proliferation and cell death", "setting": "HeLa cells; 10 nM, 48 hours", "value": "inhibited cell proliferation but did not induce cell death"}, {"measurement": "cell death", "setting": "HeLa cells; 0.1 μM, 24 hours", "value": 60, "unit": "%"}, {"measurement": "cell death", "setting": "HeLa cells; 0.1 μM, 24 hours, listed as Triptolide", "value": "greater than 50%"}, {"measurement": "cells died", "setting": "HeLa cells; 100 nM, calcium free media, 72 hours", "value": 35, "unit": "%"}, {"measurement": "cell death", "setting": "HeLa cells; 100 nM, calcium-containing medium, by 24 hours", "value": "at least 50%"}, {"measurement": "cells undergoing cell death", "setting": "HeLa cells; 25-100 nM, 24 hours", "value": "greater than 50%"}, {"measurement": "cells died", "setting": "HeLa cells; 25-100 nM, 48 hours", "value": "nearly all cells"}, {"measurement": "calcium release (Fluo-4 fluorescence)", "setting": "polycystin-2 [1]", "value": "clear rise in intracellular calcium levels"}, {"measurement": "calcium release (Fluo-4 fluorescence)", "setting": "polycystin-2 [2]; Pkd2^−/− cells, 100 nM perfused", "value": "no calcium release was detected"}, {"measurement": "calcium release (Fluo-4 fluorescence)", "setting": "polycystin-2 [2]; Pkd2 re-expressed (Rex) in Pkd2^−/− background, 100 nM", "value": "restored calcium release"}]}]}
